Measurements: ChEMBL document CHEMBL5226379, “Hypouricemic Actions of the Pericarp of Mangosteen in Vitro and in Vivo” (J Nat Prod, 2023)
Active and inactive are the calls of the source. No cut-off for these calls is given here.

Tests used:
Mus musculus [1] = experiment: (§1) Hypouricemic activity in potassium oxonate-induced hyperuricemic Kunming mouse model assessed as decrease in serum uric acid level at 5 mg/kg, IG pre-administered via gavage twice daily for 5 times followed by potassium oxonate injection for 1 hrs prior to last dose by phosphotungstic acid method; format: functional; details: for Activity: time 5.0 day
Mus musculus [2] = experiment: Hypouricemic activity in potassium oxonate-induced hyperuricemic Kunming mouse model assessed as serum urate level at 10 mg/kg, IG pre-administered via gavage twice daily for 5 times followed by potassium oxonate injection for 1 hrs prior to last dose by phosphotungstic acid method; format: functional; details: time 5 day
[3] = target: Xanthine dehydrogenase/oxidase (Homo sapiens, UniProt P47989); experiment: Inhibition of XOD (unknown origin) using xanthine as substrate assessed as inhibition of uric acid generation at 0.54 mg/L preincubated for 15 mins followed by xanthine addition and measured by spectrophotometric analysis relative to control
Mus musculus [4] = experiment: as §1, with “method relative to control” for “method”; format: functional; parameters: scale not given: the % may be the effect or the level left; details: time 5 day
Mus musculus [5] = experiment: Hypouricemic activity in potassium oxonate-induced hyperuricemic Kunming mouse model assessed as serum XOD level at 10 mg/kg, IG pre-administered via gavage twice daily for 5 times followed by potassium oxonate injection for 1 hrs prior to last dose; format: functional; details: time 5 day
Mus musculus [6] = experiment: Hypouricemic activity in potassium oxonate-induced hyperuricemic Kunming mouse model assessed as serum XDH level at 10 mg/kg, IG pre-administered via gavage twice daily for 5 times followed by potassium oxonate injection for 1 hrs prior to last dose; format: functional; details: time 5 day
Homo sapiens = organism: Homo sapiens; experiment: Inhibition of uricase (unknown origin) using uric acid as substrate at 112.5 mg/L preincubated with compounds for 15 mins followed by uric acid addition
[7] = Toxicity in Kunming mouse assessed as decrease in serum uric acid level at 1 mg/kg; format: organism-based; details: in vivo
Mus musculus [8] = experiment: Hypouricemic activity in potassium oxonate-induced hyperuricemic Kunming mouse model assessed as decrease in serum XOD level at 1 mg/kg, IG pre-administered via gavage twice daily for 5 times followed by potassium oxonate injection for 1 hrs prior to last dose; format: functional, organism-based; details: time 5.0 day
Rattus norvegicus [9] = experiment: (§2) Anti-hyperuricemic activity against potassium oxonate-induced hyperuricemic Sprague-Dawley rat model assessed as serum urate level at 12.5 mg/kg, po pre-administered via gavage twice daily for 5 times followed by potassium oxonate injection for 1 hrs prior to last dose and measured after 3 hrs; format: functional; details: time 123 hrs
Rattus norvegicus [10] = experiment: (§3) Anti-hyperuricemic activity against potassium oxonate-induced hyperuricemic Sprague-Dawley rat model assessed as fractional excretion of urate at 12.5 mg/kg, po pre-administered via gavage twice daily for 5 times followed by potassium oxonate injection for 1 hrs prior to last dose and measured after 3 hrs relative to control; format: functional; details: time 123 hrs
Rattus norvegicus [11] = experiment: Anti-hyperuricemic activity against potassium oxonate-induced hyperuricemic Sprague-Dawley rat model assessed as urine volume at 12.5 mg/kg, po pre-administered via gavage twice daily for 5 times followed by potassium oxonate injection for 1 hrs prior to last dose and measured after 3 hrs; format: functional; details: time 123 hrs
Mus musculus [12] = experiment: Anti-hyperouricemic activity in uric acid-induced hyperuricemic Kunming mouse model assessed as decrease in serum uric acid level at 25 mg/kg, IG pre-administered with uric acid for 30 mins followed by compound treatment and measured after 2 hrs by phosphotungstic acid method; format: functional, organism-based
Rattus norvegicus [13] = experiment: as §2, with “urinary creatinine” for “serum urate”; format: functional; details: time 123 hrs
Rattus norvegicus [14] = experiment: (§4) Anti-hyperuricemic activity against potassium oxonate-induced hyperuricemic Sprague-Dawley rat model assessed as urinary urate at 12.5 mg/kg, po pre-administered via gavage twice daily for 5 times followed by potassium oxonate injection for 1 hrs prior to last dose and measured after 3 hrs; format: functional; details: time 123 hrs
Rattus norvegicus [15] = experiment: as §4, with “glomerular load of” for “urinary”, “urate measured per body surface area of 0.0311 m2” for “urate”; format: functional; details: time 123 hrs
Rattus norvegicus [16] = experiment: Anti-hyperuricemic activity against potassium oxonate-induced hyperuricemic Sprague-Dawley rat model assessed as urinary urate level at 12.5 mg/kg, po pre-administered via gavage twice daily for 5 times followed by potassium oxonate injection for 1 hrs prior to last dose and measured after 3 hrs; format: functional; details: time 123 hrs
Rattus norvegicus [17] = experiment: (§5) Anti-hyperuricemic activity against potassium oxonate-induced hyperuricemic Sprague-Dawley rat model assessed as serum creatinine level at 12.5 mg/kg, po pre-administered via gavage twice daily for 5 times followed by potassium oxonate injection for 1 hrs prior to last dose and measured after 3 hrs; format: functional; details: time 123 hrs
Rattus norvegicus [18] = experiment: as §3, with “as” for “as fractional”, “urate per volume of glomerular filtration measured per body surface area of 0.0311 m2” for “urate”, “hrs” for “hrs relative to control”; format: functional; details: time 123 hrs
Rattus norvegicus [19] = experiment: as §2, with “urea nitrogen” for “urate”; format: functional; details: time 123 hrs
Rattus norvegicus [20] = experiment: as §4, with “clearance of” for “urinary”, “urate measured per body surface area of 0.0311 m2” for “urate”; format: functional; details: time 123 hrs
Rattus norvegicus [21] = experiment: as §5, with “clearance of” for “serum”, “measured per body surface area of 0.0311 m2” for “level”; format: functional; details: time 123 hrs

Chain of Xanthine dehydrogenase/oxidase (P47989 whole entry): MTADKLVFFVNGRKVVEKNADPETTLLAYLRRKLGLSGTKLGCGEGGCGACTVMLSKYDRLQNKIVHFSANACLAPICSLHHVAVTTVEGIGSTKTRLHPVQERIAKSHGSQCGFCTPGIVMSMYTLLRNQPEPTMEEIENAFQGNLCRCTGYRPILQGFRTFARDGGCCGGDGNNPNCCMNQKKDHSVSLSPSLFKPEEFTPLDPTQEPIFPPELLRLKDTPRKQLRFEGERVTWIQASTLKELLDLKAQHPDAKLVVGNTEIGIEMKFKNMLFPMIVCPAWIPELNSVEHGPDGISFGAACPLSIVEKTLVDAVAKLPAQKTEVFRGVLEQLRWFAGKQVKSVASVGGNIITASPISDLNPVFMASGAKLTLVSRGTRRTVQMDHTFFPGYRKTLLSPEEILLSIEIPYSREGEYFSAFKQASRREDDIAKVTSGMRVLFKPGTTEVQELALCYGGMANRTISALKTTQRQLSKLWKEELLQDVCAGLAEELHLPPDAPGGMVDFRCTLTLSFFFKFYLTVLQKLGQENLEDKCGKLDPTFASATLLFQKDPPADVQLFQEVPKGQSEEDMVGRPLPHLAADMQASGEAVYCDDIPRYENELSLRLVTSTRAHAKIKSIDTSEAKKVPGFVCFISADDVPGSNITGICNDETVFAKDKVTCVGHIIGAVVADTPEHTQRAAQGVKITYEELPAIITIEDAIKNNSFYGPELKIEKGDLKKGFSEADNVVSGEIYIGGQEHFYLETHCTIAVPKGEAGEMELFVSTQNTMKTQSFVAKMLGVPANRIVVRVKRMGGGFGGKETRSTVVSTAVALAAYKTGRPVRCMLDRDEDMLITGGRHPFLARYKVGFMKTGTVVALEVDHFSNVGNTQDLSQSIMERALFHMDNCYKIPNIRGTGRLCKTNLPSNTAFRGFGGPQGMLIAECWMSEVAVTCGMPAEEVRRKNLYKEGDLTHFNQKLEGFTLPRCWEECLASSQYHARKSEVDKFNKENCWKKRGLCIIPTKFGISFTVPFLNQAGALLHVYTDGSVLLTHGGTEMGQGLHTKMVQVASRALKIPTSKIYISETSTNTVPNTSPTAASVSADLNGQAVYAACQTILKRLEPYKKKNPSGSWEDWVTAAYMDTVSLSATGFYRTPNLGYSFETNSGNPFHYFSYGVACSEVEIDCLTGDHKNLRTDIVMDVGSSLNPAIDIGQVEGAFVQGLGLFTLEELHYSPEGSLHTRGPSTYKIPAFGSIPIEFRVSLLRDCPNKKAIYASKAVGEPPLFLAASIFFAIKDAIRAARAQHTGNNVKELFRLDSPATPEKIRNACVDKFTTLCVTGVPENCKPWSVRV

In the case of COc1c(O)cc2oc3cc4c(c(O)c3c(=O)c2c1CC=C(C)C)C=CC(C)(C)O4, the Activity (Mus musculus [1]) is reported as “inactive”.

With Oc1ncnc2[nH]ncc12 [ALLOPURINOL] the Activity (Mus musculus [2]) was 180.26 µmol/L, the “serum uric acid level” value (Mus musculus [1]; time 5 day) was 117.86 µmol/L and the inhibition at 0.54 µg/mL [3] was 42.7%. The Activity (Mus musculus [4]) was 64%, the Activity (Mus musculus [5]) was 11.46 U/L and the Activity (Mus musculus [6]) was 2.59 U/L.

O=C(O)c1nc(=O)[nH]c(=O)[nH]1 gave an inhibition (Homo sapiens) of 96.5%.

With Cc1nc(-c2ccc(OCC(C)C)c(C#N)c2)sc1C(=O)O [FEBUXOSTAT] the Activity [7] was “Toxic” and the Activity (Mus musculus [8]) was “Active”.

With CC(C)=CCc1c(O)cc2oc3cc(O)c(O)c(CC=C(C)C)c3c(=O)c2c1O the Activity (Mus musculus [1]) was “inactive”.

Compound CCc1oc2ccccc2c1C(=O)c1cc(Br)c(O)c(Br)c1 [BENZBROMARONE] has an Activity (Rattus norvegicus [9]) of 258 µmol/L, an Activity (Rattus norvegicus [10]) of 66% and an Activity (Rattus norvegicus [11]) of 4.6 mL. The Activity (Mus musculus [12]) was “Active”, the Activity (Rattus norvegicus [13]) was 1 mmol/L and the Activity (Rattus norvegicus [14]) was 392 µmol. The Activity (Rattus norvegicus [15]) was 3.8 µmol/min, the Activity (Rattus norvegicus [16]) was 2.7 mmol/L and the Activity (Rattus norvegicus [17]) was 56.1 µmol/L. For the same compound, the Activity (Rattus norvegicus [18]) was 5.3 µmol/L, the Activity (Rattus norvegicus [19]) was 9.7 mmol/L and the Activity (Rattus norvegicus [20]) was 8.4 mL/min. It also gave an Activity (Rattus norvegicus [21]) of 14.6 mL/min.
